Patent US20250122218A1, “MODULATORS OF CYSTIC FIBROSIS TRANSMEMBRANE CONDUCTANCE REGULATOR” (Vertex Pharmaceuticals Incorporated, priority 2022, published 2025)

Biological target: T1, CFTR in F508del/MF-HBE cells (Homo sapiens, UniProt P13569, DEL508-508)
T1 construct: human bronchial epithelial (HBE) cells derived from CF subjects heterozygous for F508del and a minimal function CFTR mutation; endogenous in cells; host or cells: primary human bronchial epithelial cells from CF subjects (F508del/MF-HBE)
Test: Ussing chamber assay of CFTR-mediated short-circuit currents (identification of potentiator compounds)
Assay type: cell-based
Conditions: potentiator incubated 18-24 hours at 37° C. in combination with 10 μM corrector, in the presence of 20% human serum, CFTR-mediated ISC
Method in brief: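 Short-circuit current was measured in Ussing chambers at 37° C, Vhold 0 mV, 30 μM apical amiloride. CFTR current was defined as the forskolin (20 μM) response relative to the current remaining after BPO/GlyH-101/inhibitor 172 (20 μM each). Before recording, cells had 18-24 h exposure to test potentiators with 10 μM corrector compound in 20% human serum.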

T1 sequence (P13569 with tags, fused parts or gaps DEL508-508): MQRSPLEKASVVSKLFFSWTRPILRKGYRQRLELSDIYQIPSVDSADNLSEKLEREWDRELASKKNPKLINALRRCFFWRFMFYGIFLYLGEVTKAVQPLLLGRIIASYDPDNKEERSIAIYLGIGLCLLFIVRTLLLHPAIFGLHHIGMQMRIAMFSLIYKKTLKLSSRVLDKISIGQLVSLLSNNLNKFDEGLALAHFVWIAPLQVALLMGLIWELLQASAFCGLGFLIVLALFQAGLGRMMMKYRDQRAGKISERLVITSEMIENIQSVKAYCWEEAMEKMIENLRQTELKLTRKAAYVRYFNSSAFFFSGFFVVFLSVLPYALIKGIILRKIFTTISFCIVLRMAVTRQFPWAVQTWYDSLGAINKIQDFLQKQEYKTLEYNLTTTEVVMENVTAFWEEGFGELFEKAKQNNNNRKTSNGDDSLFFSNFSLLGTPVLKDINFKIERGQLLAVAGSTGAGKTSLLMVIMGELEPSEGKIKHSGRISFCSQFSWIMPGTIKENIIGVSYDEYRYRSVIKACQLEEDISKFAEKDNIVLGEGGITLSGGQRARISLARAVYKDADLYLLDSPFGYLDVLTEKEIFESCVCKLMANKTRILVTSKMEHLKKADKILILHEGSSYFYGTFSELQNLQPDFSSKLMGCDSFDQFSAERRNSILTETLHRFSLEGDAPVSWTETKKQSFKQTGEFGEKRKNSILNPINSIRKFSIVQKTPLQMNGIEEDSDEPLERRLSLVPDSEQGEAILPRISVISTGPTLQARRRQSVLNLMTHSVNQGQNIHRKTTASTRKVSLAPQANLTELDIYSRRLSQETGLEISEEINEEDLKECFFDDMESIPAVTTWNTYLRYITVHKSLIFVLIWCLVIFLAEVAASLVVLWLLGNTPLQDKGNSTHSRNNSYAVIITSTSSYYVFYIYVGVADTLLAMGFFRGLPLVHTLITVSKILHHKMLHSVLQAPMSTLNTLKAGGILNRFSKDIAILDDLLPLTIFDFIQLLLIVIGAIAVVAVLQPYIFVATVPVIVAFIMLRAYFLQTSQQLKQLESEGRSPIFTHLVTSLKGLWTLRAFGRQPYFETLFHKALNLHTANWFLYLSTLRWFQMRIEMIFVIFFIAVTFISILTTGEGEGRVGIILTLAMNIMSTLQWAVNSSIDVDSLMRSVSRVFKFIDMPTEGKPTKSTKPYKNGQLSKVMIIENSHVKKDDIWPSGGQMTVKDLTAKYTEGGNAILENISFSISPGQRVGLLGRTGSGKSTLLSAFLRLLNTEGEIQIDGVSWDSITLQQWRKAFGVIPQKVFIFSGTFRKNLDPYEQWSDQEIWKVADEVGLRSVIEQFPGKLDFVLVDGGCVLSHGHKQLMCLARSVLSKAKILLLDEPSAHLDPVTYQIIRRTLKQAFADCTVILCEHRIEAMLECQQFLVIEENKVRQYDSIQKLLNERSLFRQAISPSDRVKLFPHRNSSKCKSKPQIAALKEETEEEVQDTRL

SMILES	EC50 [nM]
Nc1cc(C(F)(F)F)c2nc1-c1nnc(o1)[C@@](O)(C(F)(F)F)CCCCCN(Cc1cn[nH]c1)C2=O [Compound 113, (6R)-17-Amino-6-hydroxy-12-(1H-pyrazol-4-ylmethyl)-6,15-bis (trifluoromethyl)-19-oxa-3,4,12,18-tetrazatricyclo [12.3.1.12,5] nonadeca-1(18),2,4,14,1 6-pentaen-13-one]	> 1000
Nc1cc(C(F)(F)F)c2nc1-c1nnc(o1)C(O)(C(F)(F)F)c1cc(ccc1F)CCCCC2=O (single isomer, unassigned) [Compound 58, 20-amino-8-fluoro-6-hydroxy-6,18-bis(trifluoromethyl)-23-oxa-3,4,21-triazatetracyclo[15.3.1.12,5.17,11]tricosa-1(21),2,4,7(22),8,10,17,19-octaen-16-one]	500 to 1000
N#CC1CCCCc2cccc(c2)C(O)(C(F)(F)F)C2=NN=C(O2)c2nc1c(C(F)(F)F)cc2N (stereo not drawn) [Compound 63, 20-amino-6-hydroxy-6,18-bis(trifluoromethyl)-23-oxa-3,4,21-triazatetracyclo[15.3.1.12,5.17,11]tricosa-1(21),2,4,7,9,11(22),17,19-octaene-16-carbonitrile]	< 500
Nc1cc(C(F)(F)F)c2nc1-c1nnc(o1)C(O)(C(F)(F)F)CCCCCCC2(O)C(F)(F)F (single isomer, unassigned) [Compound 25, 17-amino-6,13,15-tris(trifluoromethyl)-19-oxa-3,4,18-triazatricyclo[12.3.1.12,5]nonadeca-1(18),2,4,14,16-pentaene-6,13-diol]	> 1000
Nc1cc(C(F)(F)F)c2nc1-c1nnc(o1)[C@@](O)(C(F)(F)F)CCCCCN(Cc1ccccc1C(F)(F)F)C2=O [Compound 156, (6R)-17-amino-6-hydroxy-6,15-bis (trifluoromethyl)-12-[[2-(trifluoromethyl)phenyl]methyl]-19-oxa-3,4,12,18-tetrazatricyclo [12.3.1.12,5] nonadeca-1(18),2,4,14,1 6-pentaen-13-one]	< 500
Nc1cc(C(F)(F)F)c2nc1-c1nnc(o1)[C@@](O)(C(F)(F)F)CCCCCN(Cc1ccc3c(c1)OC(F)(F)O3)C2=O [Compound 101, (6R)-Amino-12-[(2,2-difluoro-1,3-benzodioxol-5-yl)methyl]-6-hydroxy-6,15-bis (trifluoromethyl)-19-oxa-3,4,12,18-tetrazatricyclo [12.3.1.12,5] nonadeca-1(18),2,4,14,1 6-pentaen-13-one]	< 500
COc1ccc(CN2CCCCC[C@](O)(C(F)(F)F)C3=NN=C(O3)c3nc(c(C(F)(F)F)cc3N)C2=O)cc1F [Compound 160, (6R)-17-amino-12-[(3-fluoro-4-methoxy-phenyl)methyl]-6-hydroxy-6,15-bis (trifluoromethyl)-19-oxa-3,4,12,18-tetrazatricyclo [12.3.1.12,5] nonadeca-1(18),2,4,14,1 6-pentaen-13-one]	< 500
Nc1cc(C(F)(F)F)c2nc1-c1nnc(o1)C(O)(C(F)(F)F)CCCCCCC2O (single isomer, unassigned) [Compound 11, 17-amino-6,15-bis(trifluoromethyl)-19-oxa-3,4,18-triazatricyclo[12.3.1.12,5]nonadeca-1(18),2,4,14,16-pentaene-6,13-diol]	> 1000
Nc1cc(C(F)(F)F)c2nc1-c1nnc(o1)[C@@](O)(C(F)(F)F)CCCCCN([C@H]1C[C@@H](c3ccccc3)C1)C2=O [Compound 152, (6R)-17-amino-6-hydroxy-12-(3-phenylcyclobutyl)-6,15-bis (trifluoromethyl)-19-oxa-3,4,12,18-tetrazatricyclo [12.3.1.12,5] nonadeca-1(18),2,4,14,1 6-pentaen-13-one]	< 500
Nc1cc(C(F)(F)F)c2nc1-c1nnc(o1)[C@@](O)(C(F)(F)F)CCCCCN(C1(C3CC3)CC1)C2=O [Compound 253, (6R)-17-amino-12-(1-cyclopropylcyclo-propyl)-6-hydroxy-6,15-bis(trifluoromethyl)-19-oxa-3,4,12,18-tetrazatricyclo [12.3.1.12,5] nonadeca-1(18),2,4,14,16-pentaen-13-one]	< 500
Nc1cc(C(F)(F)F)c2nc1-c1nnc(o1)[C@@](O)(C(F)(F)F)CCCCCN(Cc1cccc(N3CCCCC3)n1)C2=O [Compound 185, (6R)-17-amino-6-hydroxy-12-[[6-(1-piperidyl)-2-pyridyl]methyl]-6,15-bis (trifluoromethyl)-19-oxa-3,4,12,18-tetrazatricyclo [12.3.1.12,5] nonadeca-1(18),2,4,14,1 6-pentaen-13-one]	< 500
Nc1cc(C(F)(F)F)c2nc1-c1nnc(o1)[C@@](O)(C(F)(F)F)CCCCCN(Cc1cccc(C(F)(F)F)c1)C2=O [Compound 182, (6R)-17-amino-6-hydroxy-6,15-bis (trifluoromethyl)-12-[[3-(trifluoromethyl)phenyl]methyl]-19-oxa-3,4,12,18-tetrazatricyclo [12.3.1.12,5] nonadeca-1(18),2,4,14,1 6-pentaen-13-one]	< 500
Nc1cc(C(F)(F)F)c2nc1-c1nnc(o1)C(O)(C(F)(F)F)CCCCCN(C1CCC1)C2=O (single isomer, unassigned) [Compound 78, 17-Amino-12-cyclobutyl-6-hydroxy-6,15-bis (trifluoromethyl)-19-oxa-3,4,12,18-tetrazatricyclo [12.3.1.12,5] nonadeca-1(18),2,4,14,1 6-pentaen-13-one]	< 500
Nc1cc(C(F)(F)F)c2nc1-c1nnc(o1)C(O)(C(F)(F)F)CCCC(=O)CCC2=O (single isomer, unassigned) [Compound 37, 17-amino-6-hydroxy-6,15-bis(trifluoromethyl)-19-oxa-3,4,18-triazatricyclo[12.3.1.12,5]nonadeca-1(18),2,4,14,16-pentaene-10,13-dione]	> 1000
Nc1cc(C(F)(F)F)c2nc1-c1nnc(o1)C(O)(C(F)(F)F)CCCCCN(Cc1ccccc1)C2=O (single isomer, unassigned) [Compound 74, 17-Amino-12-benzyl-6-hydroxy-6,15-bis (trifluoromethyl)-19-oxa-3,4,12,18-tetrazatricyclo [12.3.1.12,5] nonadeca-1(18),2,4,14,1 6-pentaen-13-one]	< 500

The next lines start with the values.

EC50 [nM]	SMILES
< 500	Nc1cc(C(F)(F)F)c2nc1-c1nnc(o1)[C@@](O)(C(F)(F)F)CCCCCN(Cc1ccc(N3CCCCC3)nc1)C2=O [Compound 187, (6R)-17-amino-6-hydroxy-12-[[6-(1-piperidyl)-3-pyridyl]methyl]-6,15-bis (trifluoromethyl)-19-oxa-3,4,12,18-tetrazatricyclo [12.3.1.12,5] nonadeca-1(18),2,4,14,1 6-pentaen-13-one]
< 500	Nc1cc(C(F)(F)F)c2nc1-c1nnc(o1)[C@@](O)(C(F)(F)F)CCCCCN(Cc1cccc(OC(F)F)c1)C2=O [Compound 254, (6R)-17-amino-12-[[3-(difluoromethoxy)phenyl]methyl]-6-hydroxy-6,15-bis(trifluoromethyl)-19-oxa-3,4,12,18-tetrazatricyclo [12.3.1.12,5] nonadeca-1(18),2,4,14,16-pentaen-13-one]
< 500	Cc1cc(CN2CCCCC[C@](O)(C(F)(F)F)C3=NN=C(O3)c3nc(c(C(F)(F)F)cc3N)C2=O)ccc1OC(F)(F)F [Compound 165]
< 500	N#CC1CCCCc2ccc(F)c(c2)C(O)(C(F)(F)F)C2=NN=C(O2)c2nc1c(C(F)(F)F)cc2N (single isomer, unassigned) [Compound 67, 20-amino-8-fluoro-6-hydroxy-6,18-bis(trifluoromethyl)-23-oxa-3,4,21-triazatetracyclo[15.3.1.12,5.17,11]tricosa-1(21),2,4,7,9,11(22),17,19-octaene-16-carbonitrile]
< 500	Nc1cc(C(F)(F)F)c2nc1-c1nnc(o1)C(O)(C(F)(F)F)CCCCCCC2O (single isomer, unassigned) [Compound 8, 17-amino-6,15-bis(trifluoromethyl)-19-oxa-3,4,18-triazatricyclo[12.3.1.12,5]nonadeca-1(18),2,4,14,16-pentaene-6,13-diol]
< 500	CC[C@@H](C)N1CCCCC[C@](O)(C(F)(F)F)C2=NN=C(O2)c2nc(c(C(F)(F)F)cc2N)C1=O [Compound 89, (6R)-17-Amino-6-hydroxy-12-[(1R)-1-methylpropyl]-6,15-bis (trifluoromethyl)-19-oxa-3,4,12,18-tetrazatricyclo [12.3.1.12,5] nonadeca-1(18),2,4,14,1 6-pentaen-13-one]
< 500	Nc1cc(C(F)(F)F)c2nc1-c1nnc(o1)C(O)(C(F)(F)F)CCCCN(Cc1ccccc1)C2=O (single isomer, unassigned) [Compound 238, 16-amino-11-benzyl-6-hydroxy-6,14-bis(trifluoromethyl)-18-oxa-3,4,11,17-tetrazatricyclo [11.3.1.12,5] octadeca-1(17),2,4,13,15-pentaen-12-one]
< 500	CCCc1ccc(CN2CCCCC[C@](O)(C(F)(F)F)C3=NN=C(O3)c3nc(c(C(F)(F)F)cc3N)C2=O)cc1 [Compound 162, (6R)-17-amino-6-hydroxy-12-[(4-propylphenyl)methyl]-6,15-bis (trifluoromethyl)-19-oxa-3,4,12,18-tetrazatricyclo [12.3.1.12,5] nonadeca-1(18),2,4,14,1 6-pentaen-13-one]
< 500	Nc1cc(C(F)(F)F)c2nc1-c1nnc(o1)[C@@](O)(C(F)(F)F)CCCCCN(Cc1cccc(-c3ccccc3)c1)C2=O [Compound 166, (6R)-17-amino-6-hydroxy-12-[(3-phenylphenyl)methyl]-6,15-bis (trifluoromethyl)-19-oxa-3,4,12,18-tetrazatricyclo [12.3.1.12,5] nonadeca-1(18),2,4,14,1 6-pentaen-13-one]
